Results published in patent US5605929A, “Methods and compositions for inhibiting 5α-reductase activity” (priority 1995, dated 1997).

Key:
[1] = target: T1, human 5α-reductase isozyme type 1 (Homo sapiens, UniProt P18405); assay: [3H]4-MA binding, human type 1 isozyme expressed in Rat-1A cells; conditions: read-out: % Inhibition of [^3 H]4-MA binding
T1 construct: expressed in transfected cells; host or cells: Rat-1A cells infected with pMV7 retrovirus; microsomes of these cells
T1 sequence (P18405 1-259): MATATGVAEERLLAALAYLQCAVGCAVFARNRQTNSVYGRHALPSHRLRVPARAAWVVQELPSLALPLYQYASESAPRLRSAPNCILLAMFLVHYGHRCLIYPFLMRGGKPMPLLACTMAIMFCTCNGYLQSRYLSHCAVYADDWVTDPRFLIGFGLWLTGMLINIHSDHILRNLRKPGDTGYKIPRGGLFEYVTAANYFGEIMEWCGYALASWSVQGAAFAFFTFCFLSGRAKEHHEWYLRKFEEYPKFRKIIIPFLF
Description: (§1) The cDNAs for the human type 1 and 2 5α-reductases were isolated from human prostate λZAP II™ cDNA libraries using the published sequence of the 5α-reductases, PCR™ and standard library screening techniques (Sambrook et al., 1989). The type 1 and 2 cDNAs correspond to nucleotides 31-870 and 28-829, respectively, of the published sequences for these 5α-reductases (Anderson and Russell, 1990; Anderson et al., 1991). The type 1 and 2 cDNAs were subcloned into the retroviral expression vector pMV7 (Kirschmeier et al., 1988) and high titer stocks of virus containing the type 1 and 2 cDNAs were generated using the packaging cells BOSC 23 293 (Kirschmeier et al., 1988). Rat.-1A cells (Pear et al., 1993) were infected with virus (Topp, 1981) and cells containing integrated retrovirus were selected for G418-SO4 resistance, (Brown and Scott, 1987).
(§2) Microsomes were prepared as described previously (Liang and Liao, 1992) from the liver of adult Sprague-Dawley female rats or Rat-1A cells expressing a specific type of human 5α-reductase. […] The data presented was based on the rate of reaction.
(§3) [^3 H]4-MA binding assay were described in detail previously (Liang and Liao, 1992; Liang et al., 1983). […] The reaction was started by the addition of 25 μl of microsomes (25 μg protein). After 30-60 min incubation at 0° C., the [^3 H]4-MA bound to microsomes was collected on a Whatman GF/F glass fiber, washed and radioactivity determined (Liang and Liao, 1992).

[2] = target: T2, human 5α-reductase isozyme type 2 (Homo sapiens, UniProt P31213); assay: [3H]4-MA binding, human type 2 isozyme expressed in Rat-1A cells; conditions: read-out: % Inhibition of [^3 H]4-MA binding
T2 construct: expressed in transfected cells; host or cells: Rat-1A cells infected with pMV7 retrovirus; microsomes of these cells
T2 sequence (P31213 1-254): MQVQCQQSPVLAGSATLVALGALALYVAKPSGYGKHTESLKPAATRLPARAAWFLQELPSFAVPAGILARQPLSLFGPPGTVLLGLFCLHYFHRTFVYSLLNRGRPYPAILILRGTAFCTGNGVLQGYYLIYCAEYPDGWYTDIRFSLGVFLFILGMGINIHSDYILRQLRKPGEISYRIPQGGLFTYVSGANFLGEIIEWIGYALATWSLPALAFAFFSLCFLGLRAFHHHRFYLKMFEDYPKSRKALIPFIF
Description: as §1, §2, §3

[3] = target: T1, human 5α-reductase isozyme type 1; assay: 4-[14C]testosterone reduction, human type 1 isozyme; format: biochemical; conditions: read-out: % Inhibition of 5α-reduction
Description: as §1, §2
(§4) The reaction was started by the addition of 25 μl of microsomes (25 μg protein). The mixture was incubated at 37° for 30-60 min and stopped by addition of 0.5 ml of ethyl acetate and mixing for 1 min. The organic solvent extract was removed under vacuum.

[4] = target: T2, human 5α-reductase isozyme type 2; assay: 4-[14C]testosterone reduction, human type 2 isozyme; format: biochemical; conditions: for inhibition at 1 µM / inhibition at 3 µM / inhibition at 10 µM / inhibition at 30 µM / inhibition at 100 µM: read-out: % Inhibition of 5α-reduction
Description: as §1, §2, §4

[5] = test system: ventral prostate and preputial organ
Description: Male Sprague-Dawley rats, 60±5 g body weight, were used. Each group had 6 rats, and all were castrated.

[6] = test system: human prostate cancer (PC3 and LNCaP) cells; assay: 5α-reduction of testosterone by human prostate cancer cells; format: cell-based
hamster flank organ = assay: Flank organ, castrated immature male hamsters, topical treatment; format: in vivo, Syrian golden hamster; conditions: for change of pigmented macule vs T alone: Table 4, T + 1 mg fatty acid
Method in brief: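 Castrated immature male hamsters (5 per group) received 5 μl once daily on the right flank organ of ethanol vehicle, androgen (T or 5α-DHT), fatty acid, or androgen plus fatty acid. The left organ was left untreated. Pigmented macule and sebaceous gland growth were assessed with caliper long and short axes, as mean ± SD.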

Structure (SMILES): O=C(O[C@@H]1Cc2c(O)cc(O)cc2O[C@@H]1c1cc(O)c(O)c(O)c1)c1cc(O)c(O)c(O)c1 [EGCG, (-)Epigallocatechin-3-gallate]
- inhibition at 1 µM [1]: 29%
- inhibition at 3 µM [1]: 47%
- inhibition at 10 µM [1]: 77%
- inhibition at 30 µM [1]: 88%
- inhibition at 100 µM [1]: 86%
- inhibition at 1 µM [2]: < 10%
- inhibition at 3 µM [2]: 12%
- inhibition at 10 µM [2]: 55%
- inhibition at 30 µM [2]: 72%
- inhibition at 100 µM [2]: 89%
- inhibition at 1 µM [3]: 22%
- inhibition at 3 µM [3]: 23%
- inhibition at 10 µM [3]: 34%
- inhibition at 30 µM [3]: 89%
- inhibition at 100 µM [3]: 98%
- activity on type 2 isozyme ([4]; enzymatic assay, concentrations below 30 μM for ECG/EGCG): did not inhibit the Type 2 isozyme
- inhibition at 1 µM [4]: < 10%
- inhibition at 3 µM [4]: < 10%
- inhibition at 10 µM [4]: < 10%
- inhibition at 30 µM [4]: < 10%
- inhibition at 100 µM [4]: 73%
- reduction of body weight increase ([5]; 5 mg ip daily, 14 days): about 35%
- reduction of weights of ventral prostate and preputial organ ([5]; 5 mg ip daily, 14 days): 10 to 35%
- fat content under the skin ([5]; rat, in vivo): appeared less
- general health / organ appearance ([5]; rat, in vivo): appeared to be as healthy as rats in other groups
- 5α-DHT production by human prostate cancer cells [6]: reduced 5α-DHT production

Structure (SMILES): CCCCC/C=C\C/C=C\C/C=C\CCCCC(=O)O [γ-Linolenic acid, γ-linolenic acid]
- inhibition of 5α-DHT-induced growth of pigmented macule (hamster flank organ; 0.2 to 1 mg): no statistically significant inhibition
- effective dosage (hamster flank organ; T-stimulated pigmented macule, per flank organ/day): ≥ 0.2 mg
- Pigmented Macule, Untreated (L) (hamster flank organ; Table 4, 1 mg fatty acid alone, 18 days): 4.2 ± 0.6 mm^2
- Pigmented Macule, Untreated (L) (hamster flank organ; Table 4, T 0.5 μg + 1 mg fatty acid): 4.1 ± 0.3 mm^2
- change of pigmented macule vs T alone (hamster flank organ; listed as LA): -53%
- change of pigmented macule vs T alone (hamster flank organ; listed as γ-LA): 53%
- Percent Inhibition (hamster flank organ; Table 5, T 0.5 μg + fatty acid 1 mg, 21 days): 66%
- Pigmented macule Right (+T) (hamster flank organ; Table 5, T 0.5 μg + fatty acid 1 mg, 21 days, T alone 49.6 ± 8.3): 17.0 ± 6.4 mm^2
- Pigmented macule Left (hamster flank organ; Table 5, fatty acid 1 mg without T, 21 days): 4.4 ± 1.6 mm^2
- Pigment Macule change (hamster flank organ; Table 6, T + LA 0.2 mg): -31%
- Sebaceous Gland change (hamster flank organ; Table 6, T + LA 0.2 mg): -30%
- Pigment Macule change (hamster flank organ; Table 6, T + LA 0.4 mg): -24%
- Pigment Macule change (hamster flank organ; Table 6, T + LA 0.6 mg): -45%
- Sebaceous Gland change (hamster flank organ; Table 6, T + LA 0.6 mg): -51%
- Pigment Macule change (hamster flank organ; Table 6, T + LA 0.8 mg): -32%
- Sebaceous Gland change (hamster flank organ; Table 6, T + LA 0.8 mg): -25%
- Pigment Macule change (hamster flank organ; Table 6, T + LA 1.0 mg): -34%
- Sebaceous Gland change (hamster flank organ; Table 6, T + LA 1.0 mg): -55%
- maximum inhibition (hamster flank organ; daily dose of 1 to 2 mg γ-LA): 50 to 66%
- effect on sebaceous gland growth stimulated by 5α-DHT (hamster flank organ; hamster, in vivo): did not significantly affect
- maximal inhibition (hamster flank organ; reached by 1 mg, T-stimulated pigmented macule): 50%
- inhibition at 1 µM [1]: 20%
- inhibition at 3 µM [1]: 54%
- inhibition at 10 µM [1]: 65%
- inhibition at 30 µM [1]: 79%
- inhibition at 100 µM [1]: 85%
- inhibition at 1 µM [2]: 22%
- inhibition at 3 µM [2]: 49%
- inhibition at 10 µM [2]: 63%
- inhibition at 30 µM [2]: 72%
- inhibition at 100 µM [2]: 88%
- inhibition at 1 µM [3]: 31%
- inhibition at 3 µM [3]: 52%
- inhibition at 10 µM [3]: 89%
- inhibition at 30 µM [3]: 99%
- inhibition at 1 µM [4]: 30%
- inhibition at 3 µM [4]: 48%
- inhibition at 10 µM [4]: 60%
- inhibition at 30 µM [4]: 88%
- inhibition at 100 µM [4]: 99%
- effect on body weight increase ([5]; 5 mg ip daily, 14 days): not EC or γ-LA
- reduction of weights of ventral prostate and preputial organ ([5]; 5 mg ip daily, 14 days): 10 to 35%
- general health / organ appearance ([5]; rat, in vivo): appeared to be as healthy as rats in other groups
- 5α-DHT production by human prostate cancer cells [6]: can inhibit the conversion of testosterone to 5α-DHT
- IC50 ([6]; Homo sapiens, LNCaP, read-out: IC50 with the prostate cancer cells): 10 ± 5 µM
